Source: ChEMBL document CHEMBL1201862, “PubChem BioAssay data set” (2004)
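Test compounds were applied to cells in 96-well plates for 48 hours at 5 doses. GI50 marks 50% less growth.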 The source made the active and inactive calls. Cut-off read from the data, not from the text of the source: active = GI50 up to about 1.1 µM and inactive = higher.

Key:
Test in all cases: NCI tumour cell line growth inhibition, 48 h
T47D = tested on: T47D
Hs-578T = tested on: Hs-578T
TK-10 = tested on: TK-10
NCI-H226 = tested on: NCI-H226
HOP-92 = tested on: HOP-92
SR = tested on: SR
SN12C = tested on: SN12C
HCT-116 = tested on: HCT-116
HL-60 = tested on: HL-60
UACC-62 = tested on: UACC-62
NCI-H23 = tested on: NCI-H23
NCI-H460 = tested on: NCI-H460
K562 = tested on: K562
786-0 = tested on: 786-0
SK-MEL-28 = tested on: SK-MEL-28
M14 = tested on: M14
IGROV-1 = tested on: IGROV-1
OVCAR-3 = tested on: OVCAR-3
HT-29 = tested on: HT-29
SNB-75 = tested on: SNB-75
MCF7 = tested on: MCF7
EKVX = tested on: EKVX
MDA-N = tested on: MDA-N
BT-549 = tested on: BT-549
HCT-15 = tested on: HCT-15
SK-MEL-5 = tested on: SK-MEL-5
RPMI-8226 = tested on: RPMI-8226
HOP-62 = tested on: HOP-62
OVCAR-8 = tested on: OVCAR-8
A549 = tested on: A549
OVCAR-4 = tested on: OVCAR-4
MDA-MB-231 = tested on: MDA-MB-231
U-251 = tested on: U-251
Malme-3M = tested on: Malme-3M
NCI-H522 = tested on: NCI-H522
SNB-19 = tested on: SNB-19
SF-539 = tested on: SF-539
SF-268 = tested on: SF-268
CCRF-CEM = tested on: CCRF-CEM
UACC-257 = tested on: UACC-257
NCI/ADR-RES = tested on: NCI/ADR-RES
RXF 393 = tested on: RXF 393
MOLT-4 = tested on: MOLT-4
HCC 2998 = tested on: HCC 2998
SK-OV-3 = tested on: SK-OV-3
PC-3 = tested on: PC-3
OVCAR-5 = tested on: OVCAR-5
DU-145 = tested on: DU-145
KM12 = tested on: KM12
COLO 205 = tested on: COLO 205
ACHN = tested on: ACHN
SF-295 = tested on: SF-295
MDA-MB-435 = tested on: MDA-MB-435
SW-620 = tested on: SW-620

Q: What does the source list for `Nc1ccc2nc3c(nc2c1)C(=O)c1ccccc1-3`?
A: GI50 (T47D): > 100 µM (inactive); GI50 (Hs-578T): > 100 µM (inactive); GI50 (TK-10): > 100 µM (inactive); GI50 (NCI-H226): 29 µM (inactive); GI50 (HOP-92): > 100 µM (inactive); GI50 (SR): > 10 µM (inactive); GI50 (SN12C): > 100 µM (inactive); GI50 (HCT-116): > 100 µM (inactive); GI50 (HL-60): > 100 µM (inactive); GI50 (UACC-62): > 100 µM (inactive); GI50 (NCI-H23): > 100 µM (inactive); GI50 (NCI-H460): 69.2 µM (inactive); GI50 (K562): > 100 µM (inactive); GI50 (786-0): 75 µM (inactive); GI50 (SK-MEL-28): > 100 µM (inactive); GI50 (M14): > 100 µM (inactive); GI50 (IGROV-1): > 100 µM (inactive); GI50 (OVCAR-3): > 100 µM (inactive); GI50 (HT-29): > 100 µM (inactive); GI50 (SNB-75): > 100 µM (inactive); GI50 (MCF7): > 100 µM (inactive); GI50 (EKVX): > 100 µM (inactive); GI50 (MDA-N): > 100 µM (inactive); GI50 (BT-549): > 100 µM (inactive); GI50 (HCT-15): > 100 µM; GI50 (SK-MEL-5): > 100 µM (inactive); GI50 (RPMI-8226): > 100 µM (inactive); GI50 (HOP-62): > 100 µM (inactive); GI50 (OVCAR-8): > 100 µM (inactive); GI50 (A549): > 100 µM (inactive); GI50 (OVCAR-4): > 100 µM (inactive); GI50 (MDA-MB-231): > 100 µM (inactive); GI50 (U-251): > 100 µM (inactive); GI50 (Malme-3M): > 100 µM (inactive); GI50 (NCI-H522): > 100 µM (inactive); GI50 (SNB-19): > 100 µM (inactive); GI50 (SF-539): > 100 µM (inactive); GI50 (SF-268): > 100 µM (inactive); GI50 (CCRF-CEM): 84.3 µM (inactive); GI50 (UACC-257): > 100 µM (inactive); GI50 (NCI/ADR-RES): > 100 µM (inactive); GI50 (RXF 393): > 100 µM (inactive); GI50 (MOLT-4): 20.3 µM (inactive); GI50 (HCC 2998): > 100 µM (inactive); GI50 (SK-OV-3): > 100 µM (inactive); GI50 (PC-3): > 100 µM (inactive); GI50 (OVCAR-5): > 100 µM (inactive); GI50 (DU-145): > 100 µM (inactive); GI50 (KM12): > 100 µM (inactive); GI50 (COLO 205): > 100 µM (inactive); GI50 (ACHN): > 100 µM (inactive); GI50 (SF-295): > 100 µM (inactive); GI50 (MDA-MB-435): > 100 µM (inactive); GI50 (SW-620): > 100 µM (inactive)
